Test results reported in patent publication US10287301B2 (Achillion Pharmaceuticals, Inc., priority 2015, dated 2019).
Read-outs that look alike come from different tables or passages of the source.

Molecular target: Human Factor D (Homo sapiens (Human), UniProt P00746)
Assay: Human Factor D Assay
Assay type: biochemical
Summary of the method: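 Factor D (from human serum) 80 nM final + cpd, 5 min RT, 50 mM Tris/1M NaCl pH 7.5; add Z-L-Lys-SBzl 100 μM and DTNB 100 μM final. IC50 by nonlinear fit of rates vs [cpd].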

[1] = Human Factor D 80 nM, substrate Z-L-Lys-SBzl, read-out: IC50

Chain of Human Factor D (P00746 26-253): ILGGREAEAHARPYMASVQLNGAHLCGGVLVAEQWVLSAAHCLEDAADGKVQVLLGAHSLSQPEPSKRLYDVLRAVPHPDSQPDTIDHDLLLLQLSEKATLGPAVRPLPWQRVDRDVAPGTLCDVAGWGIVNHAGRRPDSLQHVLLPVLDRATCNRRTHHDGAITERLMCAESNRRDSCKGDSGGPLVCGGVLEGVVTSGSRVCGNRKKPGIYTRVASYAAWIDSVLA

Row | SMILES | IC50 [1] | IC50
1 | CC(=O)c1cn(CC(=O)N2C[C@H](F)C[C@H]2C(=O)Nc2ccc(F)c(-c3nnc4n3CCCCC4)c2)c2ccc(-c3ccnnc3)cc12 [Compound 92, (2S,4R)-1-(2-(3-acetyl-5-(pyridazin-4-yl)-1H-indol-1-yl)acetyl)-4-fluoro-N-(4-fluoro-3-(6,7,8,9-tetrahydro-5H-[1,2,4]triazolo[4,3-a]azepin-3-yl)phenyl) pyrrolidine-2-carboxamide] | < 1 µM | –
2 | NC(=O)c1nn(CC(=O)N2C[C@H](F)C[C@H]2C(=O)Nc2cccc(Cl)c2C(F)(F)F)c2ccc(-c3ccnnc3)cc12 [Compound 93, 1-(2-((2S,4R)-2-(3-chloro-2-(trifluoromethyl)phenylcarbamoyl)-4-fluoropyrrolidin-1-yl)-2-oxoethyl)-5-(pyridazin-4-yl)-1H-indazole-3-carboxamide] | > 10 µM | –
3 | NC(=O)c1nn(CC(=O)N2C[C@H](F)C[C@H]2C(=O)Nc2c[nH]nc2-c2ccc(Cl)cc2Cl)c2ccc(-c3ccnnc3)cc12 [Compound 94, 1-(2-((2S,4R)-2-(3-(2,4-dichlorophenyl)-1H-pyrazol-4-ylcarbamoyl)-4-fluoropyrrolidin-1-yl)-2-oxoethyl)-5-(pyridazin-4-yl)-1H-indazole-3-carboxamide] | > 10 µM | –
4 | CC(=O)c1cn(CC(=O)N2C[C@H](F)C[C@H]2C(=O)Nc2cccc(Cl)c2-n2cncn2)c2ccc(-c3ccnnc3)cc12 [Compound 95, (2S,4R)-1-(2-(3-acetyl-5-(pyridazin-4-yl)-1H-indol-1-yl)acetyl)-N-(3-chloro-2-(1H-1,2,4-triazol-1-yl)phenyl)-4-fluoropyrrolidine-2-carboxamide] | > 10 µM | –
5 | NC(=O)c1nn(CC(=O)N2C[C@H](F)C[C@H]2C(=O)Nc2cccc(Cl)c2-n2cncn2)c2ccc(-c3ccnnc3)cc12 [Compound 96, 1-(2-((2S,4R)-2-(3-chloro-2-(1H-1,2,4-triazol-1-yl)phenylcarbamoyl)-4-fluoropyrrolidin-1-yl)-2-oxoethyl)-5-(pyridazin-4-yl)-1H-indazole-3-carboxamide] | > 10 µM | –
6 | CC(=O)c1cn(CC(=O)N2C[C@H](F)C[C@H]2C(=O)Nc2cc(C)nc3nc(C(F)(F)F)nn23)c2ccc(-c3ccnnc3)cc12 [Compound 97, (2S,4R)-1-(2-(3-acetyl-5-(pyridazin-4-yl)-1H-indol-1-yl)acetyl)-4-fluoro-N-(5-methyl-2-(trifluoromethyl)-[1,2,4]triazolo[1,5-a]pyrimidin-7-yl)pyrrolidine-2-carboxamide] | > 10 µM | –
7 | Cn1cnnc1-c1ccccc1NC(=O)[C@@H]1C[C@@H](F)CN1C(=O)Cn1nc(C(N)=O)c2cc(-c3ccnnc3)ccc21 [Compound 98, 1-(2-((2S,4R)-4-fluoro-2-(2-(4-methyl-4H-1,2,4-triazol-3-yl)phenylcarbamoyl)pyrrolidin-1-yl)-2-oxoethyl)-5-(pyridazin-4-yl)-1H-indazole-3-carboxamide] | > 10 µM | –
8 | CC(=O)c1cn(CC(=O)N2C[C@H](F)C[C@H]2C(=O)Nc2nc(-c3ccccc3Cl)ns2)c2ccc(-c3ccnnc3)cc12 [Compound 99, (2S,4R)-1-(2-(3-acetyl-5-(pyridazin-4-yl)-1H-indol-1-yl)acetyl)-N-(3-(2-chlorophenyl)-1,2,4-thiadiazol-5-yl)-4-fluoropyrrolidine-2-carboxamide] | < 1 µM | –
9 | CC(=O)c1cn(CC(=O)N2C[C@H](F)C[C@H]2C(=O)Nc2cccc(Br)n2)c2ccc(-c3ccccc3Cl)cc12 [Compound 100, (2S,4R)-1-(2-(3-acetyl-5-(2-chlorophenyl)-1H-indol-1-yl)acetyl)-N-(6-bromopyridin-2-yl)-4-fluoropyrrolidine-2-carboxamide] | < 1 µM | –
10 | Cc1ncc(-c2ccc3c(c2)c(C(N)=O)nn3CC(=O)N2C[C@H](F)C[C@H]2C(=O)Nc2cccc(Br)n2)cn1 [Compound 101, 1-(2-((2S,4R)-2-(6-bromopyridin-2-ylcarbamoyl)-4-fluoropyrrolidin-1-yl)-2-oxoethyl)-5-(2-methylpyrimidin-5-yl)-1H-indazole-3-carboxamide] | < 1 µM | –
11 | CC(=O)c1cn(CC(=O)N2C[C@H](F)C[C@H]2C(=O)Nc2cccc(-c3ccccc3Cl)c2F)c2ccc(-c3cnc(C)nc3)cc12 [Compound 102, (2S,4R)-1-(2-(3-acetyl-5-(2-methylpyrimidin-5-yl)-1H-indol-1-yl)acetyl)-N-(2′-chloro-2-fluorobiphenyl-3-yl)-4-fluoropyrrolidine-2-carboxamide] | < 1 µM | –
12 | Cc1ncc(-c2ccc3c(c2)c(C(N)=O)nn3CC(=O)N2C[C@H](F)C[C@H]2C(=O)Nc2cccc(-c3ccccc3Cl)c2F)cn1 [Compound 103] | < 1 µM | –
13 | NC(=O)c1nn(CC(=O)N2C[C@H](F)C[C@H]2C(=O)Nc2cccc3c2CN(c2ccccn2)C3)c2ccc(-c3ccnnc3)cc12 [Compound 104, 1-(2-((2S,4R)-4-fluoro-2-(2-(pyridin-2-yl)isoindolin-4-ylcarbamoyl)pyrrolidin-1-yl)-2-oxoethyl)-5-(pyridazin-4-yl)-1H-indazole-3-carboxamide] | > 10 µM | –
14 | CC(=O)c1cn(CC(=O)N2C[C@H](F)C[C@H]2C(=O)Nc2cccc3c2CN(c2ccccn2)C3)c2ccc(-c3ccnnc3)cc12 [Compound 105, (2S,4R)-1-(2-(3-acetyl-5-(pyridazin-4-yl)-1H-indol-1-yl)acetyl)-4-fluoro-N-(2-(pyridin-2-yl)isoindolin-4-yl)pyrrolidine-2-carboxamide] | > 10 µM | –
15 | CC(=O)c1cn(CC(=O)N2C[C@H](F)C[C@H]2C(=O)NC2CCCc3nc(-c4ccc(F)cc4)sc32)c2ccc(-c3ccnnc3)cc12 (stereo partly drawn) [Compound 106, (2S,4R)-1-(2-(3-acetyl-5-(pyridazin-4-yl)-1H-indol-1-yl)acetyl)-4-fluoro-N-(2-(4-fluorophenyl)-4,5,6,7-tetrahydrobenzo[d]thiazol-7-yl)pyrrolidine-2-carboxamide] | > 10 µM | –
16 | NC(=O)c1nn(CC(=O)N2C[C@H](F)C[C@H]2C(=O)NC2CCCc3nc(-c4ccc(F)cc4)sc32)c2ccc(-c3ccnnc3)cc12 (stereo partly drawn) [Compound 107, 1-(2-((2S,4R)-4-fluoro-2-(2-(4-fluorophenyl)-4,5,6,7-tetrahydrobenzo[d]thiazol-7-ylcarbamoyl)pyrrolidin-1-yl)-2-oxoethyl)-5-(pyridazin-4-yl)-1H-indazole-3-carboxamide] | > 10 µM | –
17 | NC(=O)c1nn(CC(=O)N2C[C@H](F)C[C@H]2C(=O)Nc2ncc(Br)cn2)c2ccc(-c3ccnnc3)cc12 [Compound 109, 1-(2-((2S,4R)-2-(5-bromopyrimidin-2-ylcarbamoyl)-4-fluoropyrrolidin-1-yl)-2-oxoethyl)-5-(pyridazin-4-yl)-1H-indazole-3-carboxamide] | – | 1 to 10 µM
18 | CC(=O)c1cn(CC(=O)N2C[C@H](F)C[C@H]2C(=O)Nc2ccc3ccccc3c2)c2ccc(-c3ccnnc3)cc12 [Compound 110, (2S,4R)-1-(2-(3-acetyl-5-(pyridazin-4-yl)-1H-indol-1-yl)acetyl)-4-fluoro-N-(naphthalen-2-yl)pyrrolidine-2-carboxamide] | > 10 µM | –
19 | NC(=O)c1nn(CC(=O)N2C[C@H](F)C[C@H]2C(=O)Nc2noc3cc(C(F)(F)F)ccc23)c2ccc(-c3ccnnc3)cc12 [Compound 112, 1-(2-((2S,4R)-4-fluoro-2-(6-(trifluoromethyl)benzo[d]isoxazol-3-ylcarbamoyl)pyrrolidin-1-yl)-2-oxoethyl)-5-(pyridazin-4-yl)-1H-indazole-3-carboxamide] | > 10 µM | –
